Values after ≈ are worked out from the molar mass of the structure shown.

A short description of data set [1]: Solubility of compounds. The format is physicochemical. Conditions: acidic pH conditions. As to the method: The main objective of this example is to investigate the solubility of the compounds in Example 1.
Method: A certain amoun of NPL-00, NPL-000, and NPL-1 were weighed and transferred into centrifuge tubes, respectively. Solvent was added to each tube, and the pH value of the system was adjusted with hydrochloric acid and sodium hydroxide. The mixture was shaken for 30 s every 5 min, and the dissolution state was observed within 30 min. If incomplete dissolution was observed, additional solvent was supplemented, and the above operations were repeated until the compounds were completely dissolved, and the volume of solvent at this moment was recorded. The solubility of less than 0.1 mg/mL was defined as "insoluble."

Data set [2] relates to C2C12 cells. Kind of data set: Differentiation of C2C12 cells (MYH1 immunostaining). The format is cell-based. Conditions: 0.3 µM, 7 days, medium with 2% HBS, vs control group; FIG. 4. How it is done:
The main objective of this example is to investigate the promotive effect of the compounds in Example 1 on the differentiation of muscle stem cells.
Method: C2C12 cells were selected and seeded into culture plates. After stabilization for 48 h, the medium was replaced with a medium containing 2% HBS to induce differentiation of the C2C12 cells. Meanwhile, the treatment group was treated with 0.3 µM NPL-1, while the control group was treated with an equivalent volume of the compound solvent. After continuous culture for 7 days, immunohistochemical staining was performed using MYH1 antibody, and the cell nuclei were stained with DAPI. Finally, the two channels were merged to analyze the degree of cell differentiation.

For data set [3], the system named is mouse skin. Kind of data set: NAD+ level in mouse skin after topical application. It counts as in vivo, C57BL/6 mice. Conditions: 3% topical application to the skin, 6 hours, compared to the control group; FIG. 3. As to the method:
The main objective of this example is to investigate the effect of the Compound NPL-1 in Example 1 on elevating NAD+ level in mouse skin via topical administration.
Method: Male C57BL/6 mice with 8-9 weeks old were treated with 3% of the Compound NPL-1 via topical application to the skin, and mouse skin samples were collected 6 hours later for NAD+ level detection.

For data set [4], the system named is Hacat cells. Kind of data set: ROS in UVA-irradiated Hacat cells (DCFH-DA fluorescence), antioxidation. It counts as cell-based. Conditions: 10 µM, 24 h then UVA, vs model group, FIG. 8. As to the method: The main objective of this example is to investigate the antioxidation effect of the compounds in Example 1.
Method: Hacat cells were selected and seeded into culture plates. After stabilization for 24 h, the NPL-1 group was treated with 10 µM NPL-1, while the control group and model group were treated with an equivalent volume of the compound solvent, respectively. After 24 h of treatment, all groups except the control group were irradiated with UVA for modeling. At 0.5 h after the modeling was completed, the fluorescent probe DCFH-DA was added and incubated for 0.5 h, followed by fluorescence intensity measurement to evaluate the expression level of ROS.

In data set [5] the test system is Transgenic zebrafish with green fluorescent mitochondria. Nature of the data set: Mitochondrial function in zebrafish, cobalt chloride model. It counts as in vivo. Conditions: 0.25%, 22 h then cobalt chloride 4 h, vs model group; FIG. 10. As to the method:
The main objective of this example is to investigate the effect of the compounds in Example 1 on mitochondrial function.
Method: Transgenic zebrafish with green fluorescent mitochondria were placed in a 6-well plate. The NPL-4 group was treated with NPL-4 at a concentration of 0.25%, while the control group and model group were treated with an equivalent volume of the compound solvent. After treatment in the dark for 22 h, all groups except the control group were treated with cobalt chloride for modeling. Following incubation in the dark for additional 4 h, the fluorescence intensity of the zebrafish was detected.

Data set [6] relates to tibialis anterior. Kind of data set: CTX-induced muscle injury model (tibialis anterior, HE staining). It counts as in vivo, C57BL/6 mice. Conditions: 3 mg/kg intraperitoneal once daily, 10 µM CTX into tibialis anterior, vs model group; FIG. 5. How it is done:
The main objective of this example is to investigate the protective effect of the compounds in Example 1 in a muscle injury model. Method: Male C57BL/6 mice with 8-9 weeks old in the model group and the NPL-4 group were injected intraperitoneally with the corresponding solvent or compounds, respectively, for 1 consecutive week. Subsequently, 10 µM CTX was injected into the tibialis anterior for modeling. After another 7 days, the tibialis anterior was harvested for HE staining to evaluate the injury status of the tibialis anterior of the mice. The grouping was as follows: • Control group: 8 male C57BL/6 mice with 8-9 weeks old were treated with the same solvent as in the NPL-4 group via intraperitoneal injection once daily. One week later, normal saline was injected into the tibialis anterior for modeling, while intraperitoneal injection was continued. Seven days later, the tibialis anterior was harvested for HE staining. • Model group: 8 male C57BL/6 mice with 8-9 weeks old were treated with the same solvent as in the NPL-4 group via intraperitoneal injection once daily. One week later, 10 µM CTX was injected into the tibialis anterior for modeling, while intraperitoneal injection was continued. […]

Data set [7] deals with Wild-type zebrafish. Kind of data set: DNA damage repair in zebrafish, hydrogen peroxide model (comet assay). It counts as in vivo. Conditions: 0.25% for 5 days, DNA olive tail moment, vs model group, FIG. 11. As to the method: The main objective of this example is to investigate the repairing effect of the compounds in Example 1 on DNA damage.
Method: Wild-type zebrafish were placed in a 6-well plate. All groups except the control group were treated with hydrogen peroxide to establish a zebrafish DNA damage model. Meanwhile, the NPL-4 group was treated with 0.25% NPL-4 for 5 days, while the control group and model group were treated with an equivalent volume of the compound solvent. The medium was renewed daily. Subsequently, zebrafish samples were collected and ground to prepare cell suspensions. Electrophoresis was performed using a comet assay kit, and data were collected and analyzed using comet analysis software. The DNA olive tail moment value of zebrafish cells was analyzed to evaluate the degree of DNA damage.

The subject of data set [8] is U2OS cells. Nature of the data set: Protective effect on U2OS cells against FK866-induced cytotoxicity (Cell Titer-Glo viability). It counts as cell-based. Conditions: Homo sapiens, 10 nM FK866, test compound 10 µM, 72 h, viability relative to control minus that of model group, read-out: Percentage increase in cell viability. As to the method: The main objective of this example is to investigate the protective effects of the compounds in Example 1 against the cytotoxicity resulting from FK866-mediated reduction in NAD+ levels.
Method: U2OS cells were selected and seeded into culture plates. After cell stabilization for 1 day, 10 nM of FK866 was added to all groups except the control group to induce cell death. Meanwhile, the test compounds at a concentration of 10 µM were added to the corresponding drug treatment groups, respectively. An equivalent volume of the compound solvent was added to the control group and the model group, respectively. Following incubation for 72 h, Cell Titer-Glo Luminescent cell viability assay reagent (manufacturer: Promega) was added to each well. After mixing well and incubation for 10 minutes, luminescence was detected using a microplate reader with full-wavelength scanning. The pharmacological efficacy of the compounds, expressed as the percentage increase in cell viability, was calculated by subtracting the percentage of the cell viability in the model group relative to the control group from the percentage of the cell viability in the compound-treated group relative to the control group.
A general note: Cellular ATP, detected with luciferase, serves as a proxy for viable cell number.

The subject of data set [9] is HSF cells. Kind of data set: p16 mRNA in UVA-irradiated HSF cells (qPCR), anti-aging. The format is cell-based. Conditions: 10 µM, 24 h then UVA, mRNA by qPCR, vs model group; FIG. 7. How it is done: The main objective of this example is to investigate the anti-aging effect of the compounds in Example 1.
Method: HSF cells were selected and seeded into culture plates. After stabilization for 24 h, the NPL-4 group was treated with 10 µM NPL-4, while the control group and model group were treated with an equivalent volume of the compound solvent, respectively. After 24 h of treatment, all groups except the control group were irradiated with UVA to induce cell senescence. The cells were then collected and RNA was extracted. The mRNA level of the senescence-associated gene p16 was determined using qPCR.
For orientation: In qPCR the cycle at which signal appears reflects the starting amount.

For orientation: solubility means the dissolved amount per volume that the medium holds. Read a high solubility as much dissolved substance. In data set [1], `CC(C)(C)c1cccc(C#N)c1OCC(=O)Nc1ccc(O)cc1` [NPL-000] registered a solubility of under 100 µg/mL.

For `CC(C)(C)c1ccccc1OCC(=O)Nc1ccc(O)cc1` [NPL-00], the solubility in data set [1] was under 100 µg/mL.

Consider `CC(C)(C)c1ncccc1OCC(=O)Nc1ccc(O)cc1` [NPL-1], for which, in data set [2], the “expression level of MYH1” value is recorded as “significantly higher”. In addition, in data set [3], the “NAD+ level in the mouse skin” value was “effectively elevated”. The compound also came in with a solubility in data set [1] of 7000 µg/mL (≈ 23.3 mM). The “expression level of ROS” value in data set [4] was “markedly decreased”.

`CC(=O)Nc1ccc(NC(=O)COc2cccnc2C(C)(C)C)cc1` [NPL-4]: in data set [5], the mitochondrial fluorescence intensity entry was “significantly enhanced”. The damaged area entry in [6] is “significantly smaller”. Also, the DNA damage entry in data set [7] was “significantly ameliorated”. Also, in [8], the increase in cell viability over FK866 model group at 10 µM was 128%. The “expression of p16” value in data set [9] is on record as “markedly down-regulated”.

With `CC(C)(C)c1ncncc1CCC(=O)Nc1ccc(O)cc1` [NPL-51, 3-(4-(tert-butyl)pyrimidin-5-yl)-N-(4-hydroxyphenyl)propionamide], in data set [8], the increase in cell viability over FK866 model group at 10 µM was determined as 105%.

Regarding `CC(=O)Nc1ccc(NC(=O)CCc2nccnc2C(C)(C)C)cc1` [NPL-67, N-(4-acetaminophenyl)-3-(3-(tert-butyl)pyrazin-2-yl)propionamide], the increase in cell viability over FK866 model group at 10 µM in data set [8] came to 99.3%.

On to `CC(=O)Nc1ccc(NC(=O)COc2nccnc2C(C)(C)C)cc1` [NPL-70, N-(4-acetaminophenyl)-2-((3-(tert-butyl)pyrazin-2-yl)oxy)acetamide], for which the increase in cell viability over FK866 model group at 10 µM in data set [8] came to 112%.

As to `CC(C)(C)c1nccnc1OCC(=O)Nc1ccc2[nH]c(=O)oc2c1` [NPL-71, 2-((3-(tert-butyl)pyrazin-2-yl)oxy)-N-(2-oxo-2,3-dihydrobenzo[d]oxazol-6-yl)acetamide], the increase in cell viability over FK866 model group at 10 µM in [8] came to 106%.

With `CC(C)(C)c1nccnc1CCC(=O)Nc1ccc(O)cc1` [NPL-74, 3-(3-(tert-butyl)pyrazin-2-yl)-N-(4-hydroxyphenyl)propionamide], the increase in cell viability over FK866 model group at 10 µM in data set [8] is 98.6%.

Regarding `CC(C)(C)c1nccnc1CCC(=O)Nc1ccc2[nH]c(=O)oc2c1` [NPL-76, 3-(3-(tert-butyl)pyrazin-2-yl)-N-(2-oxo-2,3-dihydrobenzo[d]oxazol-6-yl)propionamide], the increase in cell viability over FK866 model group at 10 µM in data set [8] was found to be 99%.

As to `CC(=O)Nc1ccc(NC(=O)COc2ncncc2C(C)(C)C)cc1` [NPL-79, 2-((5-(tert-butyl)pyrimidin-4-yl)oxy)-N-(4-(acetamido)phenyl)acetamide], the increase in cell viability over FK866 model group at 10 µM in data set [8] worked out at 97.9%.

(Values after patent publication EP4800006A1, “NICOTINAMIDE PHOSPHORIBOSYL TRANSFERASE AGONIST AND USE THEREOF” (Nanjing Reju Therapeutics Co. Ltd., priority 2023, dated 2025).)
